From patent US20100261749A1, “METHOD OF PREVENTING OR AMELIORATING PSORIASIS USING PYRROLOQUINOLINE QUINONE COMPOUNDS” (KYOWA HAKKO BIO CO., LTD., priority 2007, published 2010)

Key:
HOS: HR-1 mice [1] = experiment: Epidermis thickness, paraffin sections of mouse dorsal skin; format: in vivo
Experimental: (§1) For testing, HOS: HR-1 mice (female, 4 weeks old, purchased from Hoshino Laboratory Animmals, Inc.) were used. Mice were raised under conditions of a room temperature of 22±3° C. and a humidity of 50±25% while being fed with feed and water ad libitum.
(§2) Each test group consisted of 8 mice. The mice of the 1st group were fed with a commercially available powder feed product “CE-2.” The mice of the 2nd group were fed with a specialty feed product (produced by Nosan Corporation). The mice of the 3rd group were fed with a specialty feed product containing 0.0089% by weight of pyrroloquinoline quinone disodium salt (hereinafter referred to as PQQ disodium salt, produced by Mitsubishi Gas Chemical Company, Inc.). In addition, it has been known that HOS: HR-1 mice develop dry skin after being fed with the above specialty feed product (The Journal of international medical research pharmacology, 32, 392-399 (2004)).
Paraffin sections of mouse dorsal skin fixed with neutral buffer containing 10 vol % formalin were prepared for the determination of epidermis thickness. Table 3 lists results of the determination of epidermis thickness 6 weeks after the initiation of the test.

HOS: HR-1 mice [2] = experiment: Transepidermal water loss (TEWL) in dry skin mouse models, Tewameter TM210; format: in vivo; conditions: for TEWL value: specialty feed containing 0.0089% by weight PQQ disodium salt, right buttock, group average
Experimental: as §1, §2
Upon the initiation of feeding with each feed product and 2, 4, and 6 weeks later, the transepidermal water loss (TEWL) of the right buttock of each mouse was determined with the use of a Tewameter TM210 (Courage+Khazaka electronic GmbH, Germany) and the average value for each group was calculated.

HOS: HR-1 mice [3] = experiment: Skin moisture content (conductance) in dry skin mouse models, SKICON-200; format: in vivo; conditions: for Conductance (skin moisture content): specialty feed containing 0.0089% by weight PQQ disodium salt, group average
Experimental: as §1, §2
In addition, the skin moisture content (conductance) was determined with SKICON-200 (produced by IBS) and the average value for each group was calculated. Table 2 lists results of determination of the skin moisture content from week 0 to week 6 after the initiation of the test.

mast cells in dermis = experiment: Number of mast cells in dermis, May-Grunwald-Giemsa staining; format: in vivo, mice
Experimental: as §1, §2
The number of mast cells in dermis was determined with the use of May-Grunwald-Giemsa staining specimens. The counting area was the dermis located above the cutaneous muscle. The number of cells in the dermis (per 1 mm of the baseline) was obtained by dividing the determined cell number by the length of a straight line extending between both ends of the cutaneous muscle (baseline). […]

[4] = system: CD3-positive T lymphocytes in the epidermis; experiment: Number of CD3-positive T lymphocytes in epidermis, anti-CD3 immunostaining; format: in vivo, mice
Experimental: as §1, §2
In addition, counting of the number of CD3-positive T lymphocytes in the epidermis was carried out with the use of anti-CD3 immunostained specimens. The counting area was the dermis located above the cutaneous muscle. The number of cells in the epidermis (per mm of the baseline) was obtained by dividing the determined cell number by the length of a straight line extending between both ends of the cutaneous muscle (baseline). […]

[5] = 3rd group versus 2nd group, 6 weeks
[6] = 3rd group versus 2nd group (specialty feed without PQQ disodium salt)
[7] = feeding period 0 weeks (initiation)
[8] = 6 weeks after initiation, specialty feed containing 0.0089% by weight PQQ disodium salt, *p < 0.05 for the 2nd group

With O=C(O)c1cc(C(=O)O)c2c(n1)C(=O)C(=O)c1cc(C(=O)O)[nH]c1-2.[Na].[Na] [PQQ disodium salt, pyrroloquinoline quinone disodium salt] the “Epidermis thickening, result in words” value (HOS: HR-1 mice [1]; [5]) was “epidermis thickening was suppressed”, the Epidermis thickness (HOS: HR-1 mice [1]; 6 weeks after initiation, dorsal skin, specialty feed containing 0.0089% by weight PQQ disodium salt) was 64.03 μm and the “Transepidermal water loss value (TEWL value), result in words” value (HOS: HR-1 mice [2]; [6]) was “suppressed to a level lower than that in the 2nd group”. It also gave a TEWL value (HOS: HR-1 mice [2]; [7]) of 4.94 g/m²/h, a TEWL value (HOS: HR-1 mice [2]; feeding period 2 weeks) of 17.9 g/m²/h and a TEWL value (HOS: HR-1 mice [2]; feeding period 4 weeks) of 27 g/m²/h. For the same molecule, the TEWL value (HOS: HR-1 mice [2]; feeding period 6 weeks) was 29.9 g/m²/h, the “Skin moisture content (conductance), result in words” value (HOS: HR-1 mice [3]; [6]) was “increased to a greater extent than that in the 2nd group” and the “Conductance (skin moisture content)” value (HOS: HR-1 mice [3]; [7]) was 414.55 μS. For the same molecule, the “Conductance (skin moisture content)” value (HOS: HR-1 mice [3]; feeding period 2 weeks) was 67.83 μS, the “Conductance (skin moisture content)” value (HOS: HR-1 mice [3]; feeding period 4 weeks) was 41.95 μS and the “Conductance (skin moisture content)” value (HOS: HR-1 mice [3]; feeding period 6 weeks) was 39.03 μS. For the same molecule, the “Number of mast cells in the dermis, result in words” value (mast cells in dermis; [5]) was “the number of mast cells in the dermis was suppressed”, the “Number of mast cells in dermis per mm basal line” value (mast cells in dermis; [8]) was 54.62* cells/mm basal line and the “Number of CD3-positive cells in the epidermis, result in words” value [4, 5] was “the number of CD3-positive cells in the epidermis was suppressed”. The “Number of CD3-positive cells in epidermis per mm basal line” value [4, 8] was 18.95* cells/mm basal line.
